Measurements from patent US7402548B2, “Benzoxazole compounds, process for producing the same and herbicides” (Kyoyu Agri Co., Ltd., priority 2000, dated 2008).

Legend:
bulrush = assay: Herbicidal test for paddy field; type: in vivo, Scrips juncoides; settings: 500 g/ha, dropwise addition to paddy water at 1.5 leaf stage of barnyard grass; glass house 25° C., 3 weeks; rank 0-5 vs non-treated district
Protocol: (§1) Wagner pots, each having an area of 1/5000 are, were packed with Ube soil (alluvial soil) and planted with seeds or tubers of young rice plant, barnyard grass, bulrush, Cyperus serotinus Rottb., arrowhead and monochoria. Then, the pots were filled with water to a depth of 3 cm.
(§2) Each wettable powder of the desired Compounds (I) shown in Tables 1 to 21, 24, 25, 28 and 29 prepared in accordance with Example 2 was diluted with water containing a surfactant (0.05%) and subjected to dropwise addition treatment by using pipet so that an effective concentration of the compound (I) in each herbicide became 500 g/ha at 1.5 leaf stage of barnyard grass.
(§3) These plants were controlled in a glass house at an average temperature of 25° C. for 3 weeks, and then herbicidal effects thereof were investigated.
(§4) The herbicidal effects are evaluated according to the following 6 ranks as compared with non-treated district. (0: normal development, 1: Less damaged, 2: Slightly damaged, 3: Moderately damaged, 4: Severely damaged, 5: All killed). Incidentally, “-” in the column means not investigated.

Large crabgrass [1] = assay: Soil treatment test for upland field; type: in vivo, Digitaria adscendens; set-up: key: 0 = normal development, 5 = all killed; settings: 500 g/ha, 3 weeks, glass house 25° C.
In short: (§5)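 Using a pre-emergence soil application at 500 g/ha, treated pots were held 3 weeks in a glass house averaging 25° C. Injury was graded on a 0–5 scale against non-treated pots; "-" marks entries not investigated.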

livid amaranth [2] = assay: Foliar spread test for upland field; type: in vivo, Amaranthus lividus; set-up: key: 0 = normal development, 5 = all killed (6 ranks vs. untreated); settings: foliar spray, 500 ppm, 3 weeks, glass house 25° C.
In short: (§6)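 Seeds were sown in volcanic ash soil in Wagner pots and grown about 2 weeks in a glass house at an average 25° C. Wettable-powder formulations diluted to 500 ppm in water with 0.5% surfactant were sprayed uniformly over the plants. After 3 further weeks at 25° C, damage was scored 0 (normal) to 5 (all killed) against untreated plants.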

barnyard grass [3] = assay: Soil treatment test for upland field; type: in vivo, Eschinochloa crusgalli; set-up: key: 0 = normal development, 5 = all killed; settings: 500 g/ha, 3 weeks, glass house 25° C.
In short: as §5

corn [4] = assay: Foliar spread test for upland field; type: in vivo; set-up: key: 0 = normal development, 5 = all killed (6 ranks vs. untreated); settings: foliar spray, 500 ppm, 3 weeks, glass house 25° C.
In short: as §6

solgum [5] = assay: Foliar spread test for upland field; type: in vivo; set-up: key: 0 = normal development, 5 = all killed (6 ranks vs. untreated); settings: foliar spray, 500 ppm, 3 weeks, glass house 25° C.
In short: as §6

cotton = assay: Foliar spread test for upland field; type: in vivo; set-up: key: 0 = normal development, 5 = all killed (6 ranks vs. untreated); settings: foliar spray, 500 ppm, 3 weeks, glass house 25° C.
In short: as §6

sugar beat [6] = assay: Foliar spread test for upland field; type: in vivo; set-up: key: 0 = normal development, 5 = all killed (6 ranks vs. untreated); settings: foliar spray, 500 ppm, 3 weeks, glass house 25° C.
In short: as §6

soybean [7] = assay: Foliar spread test for upland field; type: in vivo; set-up: key: 0 = normal development, 5 = all killed (6 ranks vs. untreated); settings: foliar spray, 500 ppm, 3 weeks, glass house 25° C.
In short: as §6

wheat [8] = assay: Foliar spread test for upland field; type: in vivo; set-up: key: 0 = normal development, 5 = all killed (6 ranks vs. untreated); settings: foliar spray, 500 ppm, 3 weeks, glass house 25° C.
In short: as §6

common lambsquarters [9] = assay: Foliar spread test for upland field; type: in vivo, Chenopodium album; set-up: key: 0 = normal development, 5 = all killed (6 ranks vs. untreated); settings: foliar spray, 500 ppm, 3 weeks, glass house 25° C.
In short: as §6

common lambsquarters [10] = assay: Soil treatment test for upland field; type: in vivo, Chenopodium album; set-up: key: 0 = normal development, 5 = all killed; settings: 500 g/ha, 3 weeks, glass house 25° C.
In short: as §5

blackgrass [11] = assay: Soil treatment test for upland field; type: in vivo, Alopecurus aegualis; set-up: key: 0 = normal development, 5 = all killed; settings: 500 g/ha, 3 weeks, glass house 25° C.
In short: as §5

green foxtail [12] = assay: Soil treatment test for upland field; type: in vivo, Setaria viridis; set-up: key: 0 = normal development, 5 = all killed; settings: 500 g/ha, 3 weeks, glass house 25° C.
In short: as §5

barnyard grass [13] = assay: Herbicidal test for paddy field; type: in vivo, Eschinochloa crusgalli; settings: 500 g/ha, dropwise addition to paddy water at 1.5 leaf stage of barnyard grass; glass house 25° C., 3 weeks; rank 0-5 vs non-treated district
Protocol: as §1, §2, §3, §4

barnyardgrjass = assay: Foliar spread test for upland field; type: in vivo, Eschinochloa crusgalli; set-up: key: 0 = normal development, 5 = all killed (6 ranks vs. untreated); settings: foliar spray, 500 ppm, 3 weeks, glass house 25° C.
In short: as §6

morning glory [14] = assay: Foliar spread test for upland field; type: in vivo, Ipomoea spps.; set-up: key: 0 = normal development, 5 = all killed (6 ranks vs. untreated); settings: foliar spray, 500 ppm, 3 weeks, glass house 25° C.
In short: as §6

morning glory [15] = assay: Soil treatment test for upland field; type: in vivo, Ipomoea spps.; set-up: key: 0 = normal development, 5 = all killed; settings: 500 g/ha, 3 weeks, glass house 25° C.
In short: as §5

corn [16] = assay: Soil treatment test for upland field; type: in vivo; set-up: key: 0 = normal development, 5 = all killed; settings: 500 g/ha, 3 weeks, glass house 25° C.
In short: as §5

solgum [17] = assay: Soil treatment test for upland field; type: in vivo; set-up: key: 0 = normal development, 5 = all killed; settings: 500 g/ha, 3 weeks, glass house 25° C.
In short: as §5

sugar beat [18] = assay: Soil treatment test for upland field; type: in vivo; set-up: key: 0 = normal development, 5 = all killed; settings: 500 g/ha, 3 weeks, glass house 25° C.
In short: as §5

wheat [19] = assay: Soil treatment test for upland field; type: in vivo; set-up: key: 0 = normal development, 5 = all killed; settings: 500 g/ha, 3 weeks, glass house 25° C.
In short: as §5

blackgrass [20] = assay: Foliar spread test for upland field; type: in vivo, Alopecurus aegualis; set-up: key: 0 = normal development, 5 = all killed (6 ranks vs. untreated); settings: foliar spray, 500 ppm, 3 weeks, glass house 25° C.
In short: as §6

velvetleaf [21] = assay: Foliar spread test for upland field; type: in vivo, Abutilon theophrasti; set-up: key: 0 = normal development, 5 = all killed (6 ranks vs. untreated); settings: foliar spray, 500 ppm, 3 weeks, glass house 25° C.
In short: as §6

Large crabgrass [22] = assay: Foliar spread test for upland field; type: in vivo, Digitaria adscendens; set-up: key: 0 = normal development, 5 = all killed (6 ranks vs. untreated); settings: foliar spray, 500 ppm, 3 weeks, glass house 25° C.
In short: as §6

velvetleaf [23] = assay: Soil treatment test for upland field; type: in vivo, Abutilon theophrasti; set-up: key: 0 = normal development, 5 = all killed; settings: 500 g/ha, 3 weeks, glass house 25° C.
In short: as §5

annual bluegrass [24] = assay: Soil treatment test for upland field; type: in vivo, Poa annua; set-up: key: 0 = normal development, 5 = all killed; settings: 500 g/ha, 3 weeks, glass house 25° C.
In short: as §5

annual bluegrass [25] = assay: Foliar spread test for upland field; type: in vivo, Poa annua; set-up: key: 0 = normal development, 5 = all killed (6 ranks vs. untreated); settings: foliar spray, 500 ppm, 3 weeks, glass house 25° C.
In short: as §6

livid amaranth [26] = assay: Soil treatment test for upland field; type: in vivo, Amaranthus lividus; set-up: key: 0 = normal development, 5 = all killed; settings: 500 g/ha, 3 weeks, glass house 25° C.
In short: as §5

green foxtail [27] = assay: Foliar spread test for upland field; type: in vivo, Setaria viridis; set-up: key: 0 = normal development, 5 = all killed (6 ranks vs. untreated); settings: foliar spray, 500 ppm, 3 weeks, glass house 25° C.
In short: as §6

soybean [28] = assay: Soil treatment test for upland field; type: in vivo; set-up: key: 0 = normal development, 5 = all killed; settings: 500 g/ha, 3 weeks, glass house 25° C.
In short: as §5

Compound | Effects Bulrush (bulrush) | Effects Large crabgrass (Large crabgrass [1]) | Effects Livid amaranth (livid amaranth [2]) | Effects Barnyardgrass (barnyard grass [3]) | Effects Corn (corn [4]) | Effects Solgum (solgum [5]) | Effects Sotton (cotton) | Effects Sugar beat (sugar beat [6]) | Effects Common lambsquarters (common lambsquarters [10]) | Effects Blackgrass (blackgrass [11]) | Effects Green foxtail (green foxtail [12]) | Effects Barnyardgrass (barnyard grass [13]) | Effects Morning glory (morning glory [15]) | Effects Corn (corn [16]) | Effects Solgum (solgum [17]) | Effects Sugar beat (sugar beat [18]) | Effects Wheat (wheat [19]) | Effects Velvetleaf (velvetleaf [23]) | Effects Annual bluegrass (annual bluegrass [24]) | Effects Livid amaranth (livid amaranth [26]) | also measured
CCC(=Cc1cccc(C(F)(F)F)c1)c1nc2cc(F)ccc2o1 [I-c-42] | 5 | 5 | 5 | 5 | 3 | 2 | 3 | 4 | 5 | 5 | 5 | 5 | 3 | 1 | 5 | 5 | 0 | 5 | 5 | 5 | Effects Soybean (soybean [7]): 5; Effects Wheat (wheat [8]): 2; Effects Common lambsquarters (common lambsquarters [9]): 5; Effects Barnyardgrass (barnyardgrjass): 2; Effects Morning glory (morning glory [14]): 4; Effects Blackgrass (blackgrass [20]): 3; Effects Velvetleaf (velvetleaf [21]): 3; Effects Large crabgrass (Large crabgrass [22]): 4; Effects Annual bluegrass (annual bluegrass [25]): 3; Effects Green foxtail (green foxtail [27]): 4
CCC(=Cc1cccc(C(F)(F)F)c1)c1nc2cc(C)ccc2o1 [I-c-76] | 3 | 5 | 5 | 4 | 2 | 2 | 3 | 4 | 5 | 5 | 5 | 4 | 1 | 1 | 3 | 0 | 0 | 5 | 5 | 5 | Effects Soybean (soybean [7]): 5; Effects Wheat (wheat [8]): 2; Effects Common lambsquarters (common lambsquarters [9]): 4; Effects Barnyardgrass (barnyardgrjass): 2; Effects Morning glory (morning glory [14]): 5; Effects Blackgrass (blackgrass [20]): 2; Effects Velvetleaf (velvetleaf [21]): 3; Effects Large crabgrass (Large crabgrass [22]): 4; Effects Annual bluegrass (annual bluegrass [25]): 2; Effects Green foxtail (green foxtail [27]): 4
CCC(=Cc1cccc(C(F)(F)F)c1)c1nc2cc(C#N)c(Cl)cc2o1 [I-c-143] | 5 | 5 | – | 4 | – | – | – | – | 5 | 4 | 5 | 5 | 5 | 1 | 3 | 5 | 1 | 5 | 5 | 5 | Effects Soybean (soybean [28]): 3
